The source of these data is US20050107289A1, “Anti-microbial peptides and compositions” (priority 2001, published 2005).

Series [1] concerns S. aureus (MRSA) ATCC 33591. Format: cell-based, Staphylococcus aureus. The following applies: for MRSA (in vitro activity): Table 9. In short, it runs like this: (§1)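 First, peptide stocks in 5% DMSO/9% sucrose were quantified and diluted 2-fold over roughly 400-2 μg/ml. Next, overnight cultures were diluted 4000-fold to ~2.5×10^5 cfu/ml and combined with peptide. Minimum inhibitory concentrations followed NCCLS broth macro- or microdilution procedures.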

The test system of series [2] is E. coli JM109(DE3). The class given is cell-based, Escherichia coli. As to conditions: JM109. In short, it runs like this: as §1
Series [3] relates to murine red blood cells. The series is described as follows: Red blood cell hemolysis. The class given is cell-based, mouse. Also on record: RBC Hemolysis (HD50): unit not given here. The essentials:
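Washed murine erythrocytes at 5% in saline with 10% FBS were exposed to serial peptide dilutions for 30 min at 37° C. Supernatant absorbance at 560 nm was read, with saline as 0% and 1% Triton X-100 as 100% hemolysis.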

Series [4] deals with vancomycin-resistant Enterococus faecalis (VRE)(ATCC 51575). Format: cell-based, Enterococcus faecalis. Also on record: key to VRE (in vitro activity): peptide concentration in μg/ml (broth dilution assay). As to conditions: for VRE (in vitro activity): Table 9. In short, it runs like this: as §1
Series [5] deals with Bacillus cereus ATCC 11778. The class given is cell-based. The essentials: as §1
The test system of series [6] is Streptococcus pneumoniae (ATCC 6301). The class given is cell-based. In short, it runs like this: as §1
For series [7], the system named is Bacillus subtilis ATCC 43223. The series is described as follows: MIC, Bacillus subtilis. Format: cell-based. The following applies: data from MDS Panlabs Pharmacology Services. How it is done:
(§2) The antimicrobial activity of the peptides was determined using a broth dilution assay essentially as descried in the guidelines of the National Committee for […] (NCCLS) [National Committee for Clinical Laboratory Standards. Methods for dilution antimicrobial susceptibility tests for bacteria that grow aerobically. Fourth edition. Approved Standard (1997). Document M7-A4. […] The microdilution method has the advantages of requiring less amount of peptide for each assay and the possibility of multiple simultaneous inoculations and was used in most studies. Several of the strains of bacteria tested are further described in Table 3.

Series [8] deals with Staphylococcus aureus ATCC25923. The series is described as follows: MIC, Staphylococcus aureus ATCC25923. Format: cell-based. The following applies: data from MDS Panlabs Pharmacology Services. How it is done: as §2
The subject of series [9] is Listeria monocytogenes ATCC19115. The series is described as follows: MIC, Listeria monocytogenes. Format: cell-based. The protocol:
as §2
(§3) Preparation of peptide solutions. Stock peptide solutions were prepared in 5% DMSO in aq. sucrose (9%). Determination of peptide concentrations was done by quantitative HPLC analysis using known concentrations of internal standards and/or by measuring UV absorption of tryptophane-containing peptide solutions in H2O (λ=280 εTrp: 5690). Serial 2-fold dilutions were made in the above DMSO/aq. sucrose (9%) mixture with concentrations ranging approximately 400-2 μg/ml and aliquots were dispensed in test tubes (100 μl) for the macrodilution test or in microtiter plates (20 μl) for the microdilution assays.
(§4) Inoculum preparation. […]

Series [10] concerns Enterococcus faecalis vancomycin-resistant clinical isolate. Format: cell-based. The following applies: data from MDS Panlabs. The protocol:
as §2

Series [11] relates to Streptococcus pneumoniea erythromycin- and ampicillin-resistant clinical isolate. The class given is cell-based, Streptococcus pneumoniae. The following applies: data from MDS Panlabs. The protocol:
as §2

For series [12], the system named is Salmonella typhimurium ATCC 14028. The series is described as follows: MIC, Salmonella typhimurium. The class given is cell-based. How it is done:
as §2, §3, §4

Series [13] can be described thus: Cytotoxicity to M21 melanoma cells. As to conditions: human, read-out: M21 (melanoma) LD50. The class given is cell-based.
The test system of series [14] is murine red blood cells. As to conditions: cited from earlier work.

≈ marks a conversion by molar mass, not a printed value. Like-named read-outs stand apart in the source and are kept apart here. Marks after values point to notes of the source that are not given here. Non-standard residues stand in square brackets, D forms with d. Residues, ends and D or L forms follow the SMILES beside them.

As for `CC(C)C[C@@H]1NC(=O)[C@@H](Cc2c[nH]c3ccccc23)NC(=O)[C@H](CCCNC(=N)N)NC(=O)[C@@H](CCC(N)=O)NC(=O)[C@H](CCCCN)NC(=O)[C@@H](Cc2c[nH]c3ccccc23)NC(=O)[C@H](CC(C)C)NC(=O)[C@@H](Cc2c[nH]c3ccccc23)NC1=O` [SEQ ID NO:9, cyclo-[Lys-D-Gln-Arg-D-Trp-Leu-D-Trp-Leu-D-Trp]] (cyclo(K[dQ]R[dW]L[dW]L[dW])), in series [1] (ATCC 33591), the MRSA MIC stood at 12 µg/mL and the “S. aureus (MRSA) MIC” value amounted to 8 µg/mL. Besides, the “MRSA (in vitro activity)” value in [1] (media a: anti-microbial media-3 (AM-3)) came to 12. Further, the “E. coli MIC” value in [2] came to 80 µg/mL. For the same compound, in series [3], the “RBC Hemolysis (HD50)” value worked out at 40 and the “Red blood cell (mouse) HD50” value is given as 45^j μg/ml. Moreover, the VRE MIC in series [4] (ATCC 51575) stood at 12 µg/mL. Moreover, the “VRE (in vitro activity)” value in series [4] (media a: AM-3) came to 12. In [5], the B. cerius MIC came to 3 µg/mL and the “MIC Bacillus cereus” value turned out to be 2 µg/mL (≈ 1.67 µM). In [6], this compound showed a S. pneum. MIC of 4 µg/mL. In series [7], the “MIC Bacillus subtilis” value is 3^b μg/ml. Moreover, the “MIC Staphylococcus aureus” value in series [8] is listed as 3^b μg/ml. The “MIC Listeria monocytogenes” value in series [9] was determined as 20 µg/mL (≈ 16.7 µM). In addition, the “MIC Enterococcus faecalis” value in [10] is 10^b μg/ml. In addition, in series [11], the “MIC Streptococcus pneumoniea” value is 10^b μg/ml. Moreover, the “MIC Salmonella typhimurium” value in series [12] is more than 70 µg/mL. Also, the CC50 in series [13] was more than 75 µg/mL.
For “MELLITIN [linear peptide that is hemolytic against mammalian red blood cells, reference compound]”, the “MRSA (in vitro activity)” value in [1] (media b: cation adjusted Meuller Hinton broth (MHBII)) is 6.3. In series [3] (Table 9), the “RBC Hemolysis (HD50)” value is on record as 10. For the same compound, the “VRE (in vitro activity)” value in series [4] (media c: Brain Heart Infusion (BHI)) came out at 6.3. For the same compound, the “hemolytic concentration against mammalian red blood cells in vitro” value in [14] is on record as “about 10 μg/ml”.
